What was measured:
barnyard grass [1] = experiment: Test Example 3: herbicidal effect by foliage application, Wagner pot (Table 18, symbol H); type: in vivo, barnyard grass (Echinochloa crus-galli); conditions: 320 g/ha
Procedure, shortened: (§1)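 Plants were sown in alluvial soil held under 0.1–0.5 cm standing water and grown 14 days in a greenhouse at 25–30 °C. An emulsifiable formulation, water-diluted to the set dose, was then sprayed onto the foliage, and effects were scored three weeks later using previously defined criteria.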

Chinese sprangletop = experiment: Test Example 3: herbicidal effect by foliage application, Wagner pot (Table 18, symbol D); type: in vivo, chinese sprangletop (Leptochloa chinensis); conditions: 320 g/ha
Procedure, shortened: as §1

rice flat sedge = experiment: Test Example 3: herbicidal effect by foliage application, Wagner pot (Table 18, symbol E); type: in vivo, rice flat sedge (Cyperus iria); conditions: 320 g/ha
Procedure, shortened: as §1

southern crabgrass [2] = experiment: Test Example 4: herbicidal effect by soil treatment (Table 19, symbol F); type: in vivo, southern crabgrass (Digitaria ciliaris); conditions: amount of applied herbicide 320 g/ha
Procedure, shortened: (§2)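 Seeds were sown in sterilized diluvial soil and covered with about 1.5 cm of soil. An emulsion formulation diluted with water to a predetermined herbicide amount was sprayed evenly onto the soil surface. Plants grew in a greenhouse at 25° C. to 30° C., and the effect was scored three weeks after application using criteria from an earlier test.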

green foxtail [3] = experiment: Test Example 4: herbicidal effect by soil treatment (Table 19, symbol G); type: in vivo, green foxtail (Setaria viridis); conditions: amount of applied herbicide 320 g/ha
Procedure, shortened: as §2

barnyard grass [4] = experiment: Test Example 4: herbicidal effect by soil treatment (Table 19, symbol H); type: in vivo, barnyard grass (Echinochloa crus-galli); conditions: amount of applied herbicide 320 g/ha
Procedure, shortened: as §2

wild oat [5] = experiment: Test Example 4: herbicidal effect by soil treatment (Table 19, symbol I); type: in vivo, wild oat (Avena fatua); conditions: amount of applied herbicide 320 g/ha
Procedure, shortened: as §2

blackgrass [6] = experiment: Test Example 4: herbicidal effect by soil treatment (Table 19, symbol J); type: in vivo, blackgrass (Alopecurus myosuroides); conditions: amount of applied herbicide 320 g/ha
Procedure, shortened: as §2

Italian ryegrass [7] = experiment: Test Example 4: herbicidal effect by soil treatment (Table 19, symbol K); type: in vivo, Italian ryegrass (Lolium multiflorum); conditions: amount of applied herbicide 320 g/ha
Procedure, shortened: as §2

windgrass [8] = experiment: Test Example 4: herbicidal effect by soil treatment (Table 19, symbol L); type: in vivo, windgrass (Apera spica-venti); conditions: amount of applied herbicide 320 g/ha
Procedure, shortened: as §2

velvetleaf [9] = experiment: Test Example 4: herbicidal effect by soil treatment (Table 19, symbol M); type: in vivo, velvetleaf (Abutilon theophrasti); conditions: amount of applied herbicide 320 g/ha
Procedure, shortened: as §2

redroot pigweed [10] = experiment: Test Example 4: herbicidal effect by soil treatment (Table 19, symbol N); type: in vivo, redroot pigweed (Amaranthus retroflexus); conditions: amount of applied herbicide 320 g/ha
Procedure, shortened: as §2

lambsquarters [11] = experiment: Test Example 4: herbicidal effect by soil treatment (Table 19, symbol O); type: in vivo, lambsquarters (Chenopodium album); conditions: amount of applied herbicide 320 g/ha
Procedure, shortened: as §2

chickweed [12] = experiment: Test Example 4: herbicidal effect by soil treatment (Table 19, symbol P); type: in vivo, common chickweed (Stellaria media); conditions: amount of applied herbicide 320 g/ha
Procedure, shortened: as §2

false cleavers [13] = experiment: Test Example 4: herbicidal effect by soil treatment (Table 19, symbol Q); type: in vivo, false cleavers (Galium spurium); conditions: amount of applied herbicide 320 g/ha
Procedure, shortened: as §2

persian speedwell [14] = experiment: Test Example 4: herbicidal effect by soil treatment (Table 19, symbol R); type: in vivo, Persian speedwell (Veronica persica); conditions: amount of applied herbicide 320 g/ha
Procedure, shortened: as §2

southern crabgrass [15] = experiment: Test Example 5: herbicidal effect by foliage application, plastic box (Table 20, symbol F); type: in vivo, southern crabgrass (Digitaria ciliaris); conditions: foliage application, 320 g/ha, three weeks after application
Procedure, shortened: (§3)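 Plants sown in sterilized diluvial soil and grown 14 days in a greenhouse at 25° C to 30° C, then sprayed on the foliage with the compound's emulsion diluted in water to a predetermined herbicide amount. Injury to weeds and crops scored three weeks after application on a visual rating scale.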

green foxtail [16] = experiment: Test Example 5: herbicidal effect by foliage application, plastic box (Table 20, symbol G); type: in vivo, green foxtail (Setaria viridis); conditions: foliage application, 320 g/ha, three weeks after application
Procedure, shortened: as §3

barnyard grass [17] = experiment: Test Example 5: herbicidal effect by foliage application, plastic box (Table 20, symbol H); type: in vivo, barnyard grass (Echinochloa crus-galli); conditions: foliage application, 320 g/ha, three weeks after application
Procedure, shortened: as §3

wild oat [18] = experiment: Test Example 5: herbicidal effect by foliage application, plastic box (Table 20, symbol I); type: in vivo, wild oat (Avena fatua); conditions: foliage application, 320 g/ha, three weeks after application
Procedure, shortened: as §3

blackgrass [19] = experiment: Test Example 5: herbicidal effect by foliage application, plastic box (Table 20, symbol J); type: in vivo, blackgrass (Alopecurus myosuroides); conditions: foliage application, 320 g/ha, three weeks after application
Procedure, shortened: as §3

Italian ryegrass [20] = experiment: Test Example 5: herbicidal effect by foliage application, plastic box (Table 20, symbol K); type: in vivo, Italian ryegrass (Lolium multiflorum); conditions: foliage application, 320 g/ha, three weeks after application
Procedure, shortened: as §3

windgrass [21] = experiment: Test Example 5: herbicidal effect by foliage application, plastic box (Table 20, symbol L); type: in vivo, windgrass (Apera spica-venti); conditions: foliage application, 320 g/ha, three weeks after application
Procedure, shortened: as §3

velvetleaf [22] = experiment: Test Example 5: herbicidal effect by foliage application, plastic box (Table 20, symbol M); type: in vivo, velvetleaf (Abutilon theophrasti); conditions: foliage application, 320 g/ha, three weeks after application
Procedure, shortened: as §3

redroot pigweed [23] = experiment: Test Example 5: herbicidal effect by foliage application, plastic box (Table 20, symbol N); type: in vivo, redroot pigweed (Amaranthus retroflexus); conditions: foliage application, 320 g/ha, three weeks after application
Procedure, shortened: as §3

lambsquarters [24] = experiment: Test Example 5: herbicidal effect by foliage application, plastic box (Table 20, symbol O); type: in vivo, lambsquarters (Chenopodium album); conditions: foliage application, 320 g/ha, three weeks after application
Procedure, shortened: as §3

chickweed [25] = experiment: Test Example 5: herbicidal effect by foliage application, plastic box (Table 20, symbol P); type: in vivo, common chickweed (Stellaria media); conditions: foliage application, 320 g/ha, three weeks after application
Procedure, shortened: as §3

false cleavers [26] = experiment: Test Example 5: herbicidal effect by foliage application, plastic box (Table 20, symbol Q); type: in vivo, false cleavers (Galium spurium); conditions: foliage application, 320 g/ha, three weeks after application
Procedure, shortened: as §3

persian speedwell [27] = experiment: Test Example 5: herbicidal effect by foliage application, plastic box (Table 20, symbol R); type: in vivo, Persian speedwell (Veronica persica); conditions: foliage application, 320 g/ha, three weeks after application
Procedure, shortened: as §3

## CCCC(=O)Oc1c(C)nn(C)c(=O)c1-c1c(-c2ccc3c(c2)OCCO3)sc2cc(Cl)ccc12 [3-048]
Barnyard grass [1]
  herbicidal effect on barnyard grass (H): 4 (Herbicidal rate of 70% or more and less than 90%)
Chinese sprangletop
  herbicidal effect on Chinese sprangletop (D): 0 (Herbicidal rate of 5% or less (almost no effect))
Rice flat sedge
  herbicidal effect on rice flat sedge (E): 2 (Herbicidal rate of 20% or more and less than 40%)
Southern crabgrass [2]
  F: southern crabgrass, herbicidal effect grade: 0 (Herbicidal rate of 5% or less (almost no effect))
Green foxtail [3]
  G: green foxtail, herbicidal effect grade: 0 (Herbicidal rate of 5% or less (almost no effect))
Barnyard grass [4]
  H: barnyard grass, herbicidal effect grade: 0 (Herbicidal rate of 5% or less (almost no effect))
Wild oat [5]
  I: wild oat, herbicidal effect grade: 0 (Herbicidal rate of 5% or less (almost no effect))
Blackgrass [6]
  J: blackgrass, herbicidal effect grade: 0 (Herbicidal rate of 5% or less (almost no effect))
Italian ryegrass [7]
  K: Italian ryegrass, herbicidal effect grade: 0 (Herbicidal rate of 5% or less (almost no effect))
Windgrass [8]
  L: windgrass, herbicidal effect grade: 0 (Herbicidal rate of 5% or less (almost no effect))
Velvetleaf [9]
  M: velvetleaf, herbicidal effect grade: 0 (Herbicidal rate of 5% or less (almost no effect))
Redroot pigweed [10]
  N: redroot pigweed, herbicidal effect grade: 0 (Herbicidal rate of 5% or less (almost no effect))
Lambsquarters [11]
  O: lambsquarters, herbicidal effect grade: 0 (Herbicidal rate of 5% or less (almost no effect))
Chickweed [12]
  P: chickweed, herbicidal effect grade: 1 (Herbicidal rate of 5% or more and less than 20%)
False cleavers [13]
  Q: false cleavers, herbicidal effect grade: 4 (Herbicidal rate of 70% or more and less than 90%)
Persian speedwell [14]
  R: persian speedwell, herbicidal effect grade: 0 (Herbicidal rate of 5% or less (almost no effect))
Southern crabgrass [15]
  F: southern crabgrass, herbicidal effect grade: 0 (Herbicidal rate of 5% or less (almost no effect))
Green foxtail [16]
  G: green foxtail, herbicidal effect grade: 0 (Herbicidal rate of 5% or less (almost no effect))
Barnyard grass [17]
  H: barnyard grass, herbicidal effect grade: 0 (Herbicidal rate of 5% or less (almost no effect))
Wild oat [18]
  I: wild oat, herbicidal effect grade: 0 (Herbicidal rate of 5% or less (almost no effect))
Blackgrass [19]
  J: blackgrass, herbicidal effect grade: 0 (Herbicidal rate of 5% or less (almost no effect))
Italian ryegrass [20]
  K: Italian ryegrass, herbicidal effect grade: 0 (Herbicidal rate of 5% or less (almost no effect))
Windgrass [21]
  L: windgrass, herbicidal effect grade: 0 (Herbicidal rate of 5% or less (almost no effect))
Velvetleaf [22]
  M: velvetleaf, herbicidal effect grade: 1 (Herbicidal rate of 5% or more and less than 20%)
Redroot pigweed [23]
  N: redroot pigweed, herbicidal effect grade: 3 (Herbicidal rate of 40% or more and less than 70%)
Lambsquarters [24]
  O: lambsquarters, herbicidal effect grade: 3 (Herbicidal rate of 40% or more and less than 70%)
Chickweed [25]
  P: chickweed, herbicidal effect grade: 5 (Herbicidal rate of 90% or more (almost completely withered))
False cleavers [26]
  Q: false cleavers, herbicidal effect grade: 4 (Herbicidal rate of 70% or more and less than 90%)

## CSc1ccc(-c2sc3ccccc3c2-c2c(O)c(C)nn(C)c2=O)cc1 [1-036]
Barnyard grass [1]
  herbicidal effect on H (barnyard grass), rating 0-5: 5 (Herbicidal rate of 90% or more (almost completely withered))
Chinese sprangletop
  herbicidal effect on D (Chinese sprangletop), rating 0-5: 3 (Herbicidal rate of 40% or more and less than 70%)
Rice flat sedge
  herbicidal effect on E (rice flat sedge), rating 0-5: 5 (Herbicidal rate of 90% or more (almost completely withered))
Southern crabgrass [2]
  herbicidal effect rating, F: southern crabgrass: 0 (Herbicidal rate of 5% or less (almost no effect))
Barnyard grass [4]
  herbicidal effect rating, H: barnyard grass: 4 (Herbicidal rate of 70% or more and less than 90%)
Wild oat [5]
  herbicidal effect rating, I: wild oat: 0 (Herbicidal rate of 5% or less (almost no effect))
Blackgrass [6]
  herbicidal effect rating, J: blackgrass: 0 (Herbicidal rate of 5% or less (almost no effect))
Italian ryegrass [7]
  herbicidal effect rating, K: Italian ryegrass: 5 (Herbicidal rate of 90% or more (almost completely withered))
Windgrass [8]
  herbicidal effect rating, L: windgrass: 0 (Herbicidal rate of 5% or less (almost no effect))
Velvetleaf [9]
  herbicidal effect rating, M: velvetleaf: 2 (Herbicidal rate of 20% or more and less than 40%)
Redroot pigweed [10]
  herbicidal effect rating, N: redroot pigweed: 5 (Herbicidal rate of 90% or more (almost completely withered))
Lambsquarters [11]
  herbicidal effect rating, O: lambsquarters: 5 (Herbicidal rate of 90% or more (almost completely withered))
Chickweed [12]
  herbicidal effect rating, P: chickweed: 5 (Herbicidal rate of 90% or more (almost completely withered))
False cleavers [13]
  herbicidal effect rating, Q: false cleavers: 0 (Herbicidal rate of 5% or less (almost no effect))
Persian speedwell [14]
  herbicidal effect rating, R: persian speedwell: 5 (Herbicidal rate of 90% or more (almost completely withered))
Southern crabgrass [15]
  herbicidal effect grade, F: southern crabgrass: 0 (Herbicidal rate of 5% or less (almost no effect))
Green foxtail [16]
  herbicidal effect grade, G: green foxtail: 4 (Herbicidal rate of 70% or more and less than 90%)
Barnyard grass [17]
  herbicidal effect grade, H: barnyard grass: 4 (Herbicidal rate of 70% or more and less than 90%)
Wild oat [18]
  herbicidal effect grade, I: wild oat: 2 (Herbicidal rate of 20% or more and less than 40%)
Blackgrass [19]
  herbicidal effect grade, J: blackgrass: 4 (Herbicidal rate of 70% or more and less than 90%)
Italian ryegrass [20]
  herbicidal effect grade, K: Italian ryegrass: 4 (Herbicidal rate of 70% or more and less than 90%)
Windgrass [21]
  herbicidal effect grade, L: windgrass: 3 (Herbicidal rate of 40% or more and less than 70%)
Velvetleaf [22]
  herbicidal effect grade, M: velvetleaf: 5 (Herbicidal rate of 90% or more (almost completely withered))
Redroot pigweed [23]
  herbicidal effect grade, N: redroot pigweed: 5 (Herbicidal rate of 90% or more (almost completely withered))
Lambsquarters [24]
  herbicidal effect grade, O: lambsquarters: 4 (Herbicidal rate of 70% or more and less than 90%)
Chickweed [25]
  herbicidal effect grade, P: chickweed: 5 (Herbicidal rate of 90% or more (almost completely withered))
False cleavers [26]
  herbicidal effect grade, Q: false cleavers: 4 (Herbicidal rate of 70% or more and less than 90%)
Persian speedwell [27]
  herbicidal effect grade, R: persian speedwell: 5 (Herbicidal rate of 90% or more (almost completely withered))
